Data on 17 molecules can be found in ChEMBL document CHEMBL4177601, “Dual antioxidant structures with potent anti-inflammatory, hypolipidemic and cytoprotective properties” (Bioorg Med Chem Lett, 2017).

Experiment [1] is described as follows: Antioxidant activity assessed as DPPH radical scavenging activity at 200 uM measured after 30 mins relative to control. In kind it is functional.
Experiment [2] deals with Rattus norvegicus. The experiment is described as follows: Anti-inflammatory activity in rat assessed as reduction in carrageenan-induced hind paw oedema at 0.15 mmol/kg, ip pretreated for 5 mins followed by carrageenan challenge measured after 3.5 hrs. In kind it is functional. Set-up: scale not given: the % may be the effect or the level left.
Experiment [3] can be described thus: Antioxidant activity assessed as DPPH radical scavenging activity at 50 uM measured after 30 mins relative to control. In kind it is functional. Background: Loss of DPPH colour is used to gauge radical scavenging.
The nature of experiment [4]: Antioxidant activity assessed as DPPH radical scavenging activity at 100 uM measured after 30 mins relative to control. The format is functional.
Experiment [5] relates to Liver. The experiment in a line: Antioxidant activity in rat hepatic microsomes assessed as inhibition of FeSO4-induced lipid peroxidation at 1 to 1000 uM measured after 45 mins by spectrophotometry. In kind it is functional. The settings on record: microsome.
Another experiment deals with Mus musculus. The experiment is described as follows: Anti-inflammatory activity in Balb/C mouse assessed as reduction in carrageenan-induced hind paw oedema at 0.15 mmol/kg, ip pretreated for 1 hr followed by carrageenan challenge. The format is functional. Details: scale not given: the % may be the effect or the level left. For orientation: In the carrageenan paw model, swelling and tenderness develop within hours.

The subject of experiment [6] is Liver. The experiment in a line: Antioxidant activity in rat hepatic microsomes assessed as inhibition of FeSO4-induced lipid peroxidation measured after 45 mins by spectrophotometry. The format is functional, microsome. To be noted: 0.75 h.
Experiment [7] in a line: Antioxidant activity assessed as DPPH radical scavenging activity at 25 to 200 uM measured after 30 mins. The format is functional.
Experiment [8] relates to Rattus norvegicus. The experiment is described as follows: Protection against paracetamol-induced liver injury in rat assessed as reduction in plasma GOT level at 1 mmol/kg, po measured at 24 hrs post paracetamol challenge relative to control. Details: scale not given: the % may be the effect or the level left. The format is functional.
Experiment [9] concerns Rattus norvegicus. The experiment in a line: Protection against paracetamol-induced liver injury in rat assessed as reduction in plasma GPT level at 1 mmol/kg, po measured at 24 hrs post paracetamol challenge relative to control. Details: scale not given: the % may be the effect or the level left. The format is functional.
The test system of experiment [10] is Rattus norvegicus. The experiment in a line: Hypolipidemic activity in triton WR1339-induced rat model of hyperlipidemia assessed as reduction in plasma total cholesterol level at 150 umol/kg, ip administered after 1 hr post triton WR1339 challenge measured after 24 hrs relative to control. The format is functional. Details: scale not given: the % may be the effect or the level left.

For experiment [11], the system named is Rattus norvegicus. The experiment in a line: Protection against paracetamol-induced liver injury in rat assessed as reduction in plasma LDH level at 1 mmol/kg, po measured at 24 hrs post paracetamol challenge relative to control. Details: scale not given: the % may be the effect or the level left. In kind it is functional.
Experiment [12] has as its system Liver. The experiment in a line: Potency index, ratio of trolox IC50 to test compound IC50 for inhibition FeSO4-induced lipid peroxidation in rat hepatic microsomes. To be noted: microsome. In kind it is functional.
Experiment [13] deals with Rattus norvegicus. The experiment is described as follows: Hypolipidemic activity in triton WR1339-induced rat model of hyperlipidemia assessed as reduction in plasma total triglyceride level at 150 umol/kg, ip administered after 1 hr post triton WR1339 challenge measured after 24 hrs relative to control. Details: scale not given: the % may be the effect or the level left. In kind it is functional.

For the next experiment, the target named is Lipoxygenase (Glycine max, UniProt Q39829). The experiment in a line: Inhibition of soybean lipoxygenase using sodium linoleate as substrate measured after 7 mins.

Activity calls are given as the source filed them. The calls are words filed in the database; no cut-off is given here.

Regarding `O=C(/C=C/c1ccccc1)NCCS`, the Activity is 86% in experiment [1], 38% with Rattus norvegicus [2], 31% in experiment [3] and 59% in experiment [4]. Besides, the inhibition entry in the experiment with Liver [5] is “inactive”.
With `CCOC(=O)[C@@H](N)CS`, in the experiment with Mus musculus, the Activity is listed as 25%.
Consider `CC(C)(C)c1cc(C(=O)O)cc(C(C)(C)C)c1O`, for which the IC50 – broadly, the concentration at which inhibition is half-maximal – with Liver [6] worked out at 250 µM.
Turning to `CC(C)(C)c1cc(C(=O)NCCSSCCNC(=O)c2cc(C(C)(C)C)c(O)c(C(C)(C)C)c2)cc(C(C)(C)C)c1O`, the inhibition entry in the experiment with Liver [5] was “inactive”. The result in experiment [7] was Active.
`CCOC(=O)C(CS)NC(=O)/C=C/c1ccccc1` (stereo unspecified): the Activity in experiment [1] came to 86%; in the experiment with Rattus norvegicus [2], 35%; in experiment [3], 27%; in experiment [4] it was 42%. The inhibition result in the experiment on Liver [5] is “inactive”.
Consider `NCCS` [CYSTEAMINE], for which, in the experiment with Mus musculus, the Activity worked out at 15%.
Take `CCOC(=O)C(CSSCC(NC(=O)/C=C/c1ccccc1)C(=O)OCC)NC(=O)/C=C/c1ccccc1` (stereo unspecified): the inhibition result with Liver [5] was “inactive”. The outcome in [7] was Active.
As to `Cc1c(C)c2c(c(C)c1O)CCC(C)(C(=O)NCCS)O2` (stereo unspecified), the Activity amounted to 93% in experiment [1]; 26% in the experiment on Rattus norvegicus [8]; 15% in the experiment with Rattus norvegicus [9]; 67% in the experiment with Rattus norvegicus [2]; 67.1% in the experiment with Rattus norvegicus [10]; 70% in the experiment with Rattus norvegicus [11]. Further, the values for the Activity (in experiment [3]; in experiment [4]; in the experiment with Rattus norvegicus [13]) were 61%, 92% and 47.3%, respectively. Further, the Ratio IC50 in the experiment on Liver [12] was 10. Also, in the experiment with Liver [6], the 50% inhibitory concentration (IC50) is 1.6 µM.
Take `CCOC(=O)C(CS)NC(=O)C1(C)CCc2c(C)c(O)c(C)c(C)c2O1` (stereo unspecified): the Activity in [1] was found to be 93%; in the experiment with Rattus norvegicus [8], 70%; in the experiment with Rattus norvegicus [9], 64%; in the experiment on Rattus norvegicus [2], 39%; with Rattus norvegicus [10], 73%; with Rattus norvegicus [11], 78%. Further, the Activity in experiment [3] is 61%; in experiment [4], 91%; with Rattus norvegicus [13], 72.3%. In addition, the Ratio IC50 in the experiment on Liver [12] was 10. Also, the IC50 in the experiment on Liver [6] was 3 µM.
On to `CCOC(=O)C(CS)NC(=O)c1cc(C(C)(C)C)c(O)c(C(C)(C)C)c1` (stereo unspecified), for which the Activity in experiment [1] worked out at 85%; with Rattus norvegicus [2], 59%; in experiment [3], 23%; in [4], 46%. Also, the concentration for half-maximal inhibition (IC50) on Lipoxygenase turned out to be 67 µM; with Liver [6] it was 200 µM.
Take `CC(C)(C)c1cc(C(=O)NCCS)cc(C(C)(C)C)c1O`: the Activity in experiment [1] came out at 85%; in the experiment with Rattus norvegicus [2], 87%; in experiment [3] it was 20%; in [4] it was 45%. For the same molecule, the IC50 is 121 µM on Lipoxygenase and 45 µM in the experiment with Liver [6].
Consider `CCOC(=O)C(CS)NC(=O)/C=C/c1cc(C(C)(C)C)c(O)c(C(C)(C)C)c1` (stereo unspecified), for which the Activity in [1] turned out to be 96%; in the experiment with Rattus norvegicus [2], 61%; in experiment [3] it was 37%; in experiment [4], 70%. For the same molecule, the half-maximal inhibitory concentration (IC50) came to 135 µM against Lipoxygenase and 40 µM with Liver [6].
Turning to `CCOC(=O)C(CSSCC(NC(=O)c1cc(C(C)(C)C)c(O)c(C(C)(C)C)c1)C(=O)OCC)NC(=O)c1cc(C(C)(C)C)c(O)c(C(C)(C)C)c1` (stereo unspecified), the Activity in the experiment on Rattus norvegicus [2] is recorded as 36%. For the same molecule, the inhibition entry with Liver [5] is “inactive”. Moreover, the result in [7] was Active.
As for `CC(C)(C)c1cc(/C=C/C(=O)NCCS)cc(C(C)(C)C)c1O`, the Activity amounted to 92% in experiment [1], 67% in the experiment with Rattus norvegicus [2], 34% in [3] and 60% in experiment [4]. Further, the half-maximal inhibitory concentration (IC50) worked out at 160 µM at Lipoxygenase and 30 µM with Liver [6].
Turning to `O=C(/C=C/c1ccccc1)NCCSSCCNC(=O)/C=C/c1ccccc1`, in the experiment on Rattus norvegicus [2], the Activity stood at 42%. Moreover, the inhibition result in the experiment on Liver [5] was “inactive”. The result in experiment [7] was Active.
As for `Cc1c(C)c2c(c(C)c1O)CCC(C)(C(=O)O)O2` (stereo unspecified) [TROLOX], in the experiment with Liver [6], the IC50 was found to be 25 µM.
On to `CC(C)Cc1ccc(C(C)C(=O)O)cc1` (stereo unspecified) [IBUPROFEN], for which the Activity in the experiment on Rattus norvegicus [2] was 36%.
